Results published in patent publication US20240057598A1, “USE OF 2-AMINO-3-METHYLHEXANOIC ACID AS PLANT IMMUNITY INDUCER” (NANJING AGRICULTURAL UNIVERSITY, priority 2020, published 2024).

Experiments:
[1] = tested on: tea "Baiye 1" cutting seedlings; test: Induced resistance of tea to low temperature stress; assay type: in vivo; conditions: for PIABS / Cold injury index: tea seedlings, −4° C. for 24 h; for Cold injury index: 3 days recovery
Description: The tea trees tested were “Baiye 1” cutting seedlings. Tea seedlings with relatively consistent growth were transplanted into a plastic pot with a diameter of 18 cm and placed in a greenhouse at a temperature of 25° C. and a humidity of 60%-70% for adaptive growth for about a week. The concentrations of 0, 1, 10, 100 and 1,000 nM were set in the experiment, and 0.02% Tween 20 was added as a surfactant. The spray treatment method was the same as that of the ryegrass in Example 4, and the low temperature stress treatment was conducted at −4° C. for 24 h. After the stress was completed, the tea seedlings were taken out and treated in the dark at room temperature for 30 min, and then the chlorophyll fluorescence parameters of the top leaves of the tea seedlings was determined using the plant efficiency analyzer Handy PEA. Then, the tea seedlings were placed in a 25° C. greenhouse to recover for 3 days, and the cold injury status was observed, counted and graded.

E. coli B = conditions: cited from earlier work
[2] = tested on: Pseudomonas syringae PstDC3000; test: Induced resistance of Arabidopsis to Pseudomonas syringae infection; assay type: in vivo; conditions: for Number of bacteria in each milligram of leaf: Arabidopsis leaves, 3 days after inoculation; for Decrease of number of bacteria in each milligram of leaf: compared with blank control; for Decrease of disease index: versus blank control
Description: 2-amino-3-methylhexanoic acid was dissolved in sterile water and then diluted with sterile water into solutions of 1 nM, 10 nM, 100 nM, 1,000 nM and 10,000 nM by gradient. A blank control was additionally set, and 0.02% Tween 20 was added as a surfactant. Pseudomonas syringae PstDC3000 was spread on an LB plate and cultured at 28° C. for 48 h. Monoclonal colonies were selected and transferred into a 50 mL centrifuge tube containing 2 mL of a culture medium, and cultured on a shaker at 28° C. and 250 rpm. The change of the OD600 value of the bacterial solution was monitored every 1-2 h, and culture of bacteria was stopped before the OD600 value reached 0.8. 1 mL of bacterial solution was transferred into a 1.5 mL sterile centrifuge tube and centrifuged at 8,000 rpm for 2 min, and the precipitate was collected. The supernatant was removed, the precipitate was washed with 10 mM magnesium chloride three times and centrifuged, and finally the PstDC3000 was suspended in 10 mM magnesium chloride to make the OD600 value thereof reach 0.001 for use. Arabidopsis seeds were soaked in 75% alcohol for 3 min, then washed with sterile water 4 times, and sowed in a culture dish containing a ½ MS medium according to 12 seeds per culture dish. The ½ MS culture dish with seeds was vernalized at 4° C. for 3 days to break dormancy, and then placed in a culture room at 24° C. with a light intensity of 100 μEm^−2s^−1 (16 h light/8 h dark). When the seedlings grew for 2 weeks, the 2-amino-3-methylhexanoic acid of different concentrations was slowly poured into the culture dish until the whole Arabidopsis seedlings were submerged, and after 2-3 min, the treatment solution was poured out of the culture dish. The treatment was repeated once after 24 h and conducted twice in total. 24 h after the second treatment, the Arabidopsis leaves were inoculated with the PstDC3000 suspension (OD600=0.01) by the same submergence method. After inoculation, the culture dish was closed with a medical breathable adhesive tape, and placed in the culture room for further culture. 3 days later, the number of bacteria in different treatment groups was determined. The incidence of Arabidopsis was observed. The disease index was calculated by a formula the same as that in Example 1.
Grading standard of disease caused by PstDC3000 (per leaf): • Grade 0: No diseased spot on the leaf surface. • Grade 1: The diseased spot area accounts for 0-10% of the whole leaf area. • Grade 2: The diseased spot area accounts for 10-25% of the whole leaf area. • Grade 3: The diseased spot area accounts for 25-50% of the whole leaf area. • Grade 4: The diseased spot area accounts for 50-75% of the whole leaf area. • Grade 5: The diseased spot area accounts for 75-100% of the whole leaf area.

tea variety Longjing 43 = test: Field test: resistance of tea plants to high temperature and tea quality; assay type: in vivo; conditions: for Amino acid content: 5th day after use, tea leaves under high temperature stress; for Heat injury rate: 10th day after use, field; for PIABS: field heat stress
Description: In August 2020, a field test was conducted in the Sun Yat-sen Mausoleum Tea Garden in Nanjing, and the tea variety was Longjing 43. During the test, the actual temperature of the field was 37.6° C.-45.1° C., the concentration of 2-amino-3-methylhexanoic acid was 0, 10, 100, 1,000 and 10,000 nM, and 0.02% Tween 20 was added as a surfactant. Three repetitions were set for each treatment group. In a plot area of 20 m^2, the liquid spraying volume per plot was 2 L. The pesticide was applied to the field three times on August 6, August 8 and Aug. 15, 2020 respectively. On the 3rd, 7th and 14th days after the last use of the pesticide, the phenotype of a tea tree was observed, and a leaf and a bud were sampled from the top of the tea tree. 15 leaves were taken for each treatment group, and the chlorophyll fluorescence parameter PIABS ([…]) of tea leaves was determined with a plant efficiency analyzer Handy-PEA. Samples were taken and the total amino acid content in tea leaves was determined on the 5th day after use of the pesticide, and the heat injury rate was calculated on the 10th day after use of the pesticide.

Achromobacter butyri = conditions: cited from earlier work
[3] = 1,000 nM, tea leaves, low temperature stress

In the case of `CCCC(C)C(N)C(=O)O` (centres unmarked) [2-amino-3-methylhexanoic acid], the PIABS ([1]; 1 nM) is reported as 17.69 ± 2.12b, the Cold injury index ([1]; 1 nM) is reported as 45% and the PIABS ([1]; 10 nM) is reported as 21.30 ± 1.73ab. The Cold injury index ([1]; 10 nM) was 30%, the PIABS ([1]; 100 nM) was 27.01 ± 3.27a and the Cold injury index ([1]; 100 nM) was 15%. For the same compound, the “Decrease of cold injury index” value [1, 3] was 65%, the “Increase of PIABS” value [1, 3] was 313% and the PIABS ([1]; 1,000 nM) was 30.42 ± 3.51a. For the same compound, the Cold injury index ([1]; 1,000 nM) was 10%, the Inhibitory effect (E. coli B) was “slight inhibitory effect” and the Disease index ([2]; 10 nM, Arabidopsis) was 45.00 ± 2.78b. For the same compound, the “Number of bacteria in each milligram of leaf” value ([2]; 10 nM) was 3.81 × 10^5 CPU/mg, the “Decrease of number of bacteria in each milligram of leaf” value ([2]; 10 nM) was 88.24% and the “Decrease of disease index” value ([2]; 10 nM) was 42.33. The “Number of bacteria in each milligram of leaf” value ([2]; 100 nM) was 2.49×10^5 CPU/mg, the “Decrease of number of bacteria in each milligram of leaf” value ([2]; 100 nM) was 92.31% and the “Decrease of disease index” value ([2]; 100 nM) was 45.85. The Amino acid content (tea variety Longjing 43; 10 nM) was 2.03 ± 0.05b % DW, the Heat injury rate (tea variety Longjing 43; 10 nM, tea leaves) was 30% and the PIABS (tea variety Longjing 43; 10 nM, 3 d after last use, tea leaves) was 6.25 ± 0.51c. The PIABS (tea variety Longjing 43; 10 nM, 7 d after last use, tea leaves) was 6.43 ± 0.44b, the PIABS (tea variety Longjing 43; 10 nM, 14 d after last use, tea leaves) was 14.44 ± 0.59c and the “Increase of total amino acid content versus control group” value (tea variety Longjing 43; 10 nM, high temperature stress) was 22%. For the same compound, the Amino acid content (tea variety Longjing 43; 100 nM) was 2.21 ± 0.32a % DW, the Heat injury rate (tea variety Longjing 43; 100 nM, tea leaves) was 17% and the PIABS (tea variety Longjing 43; 100 nM, 3 d after last use, tea leaves) was 8.26 ± 0.63b. For the same compound, the PIABS (tea variety Longjing 43; 100 nM, 7 d after last use, tea leaves) was 8.07 ± 0.36a, the PIABS (tea variety Longjing 43; 100 nM, 14 d after last use, tea leaves) was 19.29 ± 0.95b and the “Increase of total amino acid content versus control group” value (tea variety Longjing 43; 100 nM, high temperature stress) was 33%. The Amino acid content (tea variety Longjing 43; 1,000 nM) was 2.20 ± 0.05a % DW, the Heat injury rate (tea variety Longjing 43; 1,000 nM, tea leaves) was 15% and the PIABS (tea variety Longjing 43; 1,000 nM, 3 d after last use, tea leaves) was 8.48 ± 0.61ab. For the same compound, the PIABS (tea variety Longjing 43; 1,000 nM, 7 d after last use, tea leaves) was 8.14 ± 0.70a, the PIABS (tea variety Longjing 43; 1,000 nM, 14 d after last use, tea leaves) was 19.85 ± 1.04ab and the “Increase of total amino acid content versus control group” value (tea variety Longjing 43; 1,000 nM, high temperature stress) was 33%. For the same compound, the “PIABS higher than control group” value (tea variety Longjing 43; 10,000 nM, 3rd day after use) was 108%, the Amino acid content (tea variety Longjing 43; 10,000 nM) was 2.23 ± 0.08a % DW and the “PIABS higher than control group” value (tea variety Longjing 43; 10,000 nM, 7th day after use) was 48%. For the same compound, the Heat injury rate (tea variety Longjing 43; 10,000 nM, tea leaves) was 14%, the “PIABS higher than control group” value (tea variety Longjing 43; 10,000 nM, 14th day after use) was 52% and the PIABS (tea variety Longjing 43; 10,000 nM, 3 d after last use, tea leaves) was 8.68 ± 0.56a. The PIABS (tea variety Longjing 43; 10,000 nM, 7 d after last use, tea leaves) was 8.36 ± 0.51a, the PIABS (tea variety Longjing 43; 10,000 nM, 14 d after last use, tea leaves) was 21.97 ± 0.88a and the “Increase of total amino acid content versus control group” value (tea variety Longjing 43; 10,000 nM, high temperature stress) was 34%. The “Optimum use concentration (accumulation of amino acids in tea leaves)” value (tea variety Longjing 43; tea leaves, high temperature stress) was 100 nM and the Inhibitory effect (Achromobacter butyri) was “slight inhibitory effect”.
